Measurements published in ChEMBL document CHEMBL6134809 (Eur J Med Chem, 2025).
Converted amounts (≈) assume the structure as drawn. The source made the active and inactive calls. No cut-off for these calls is given here.

Experiments:
Pseudomonas aeruginosa [1] = test: Antibiofilm activity against Pseudomonas aeruginosa PAO1 assessed as reduction in biofilm formation at 1/4 times MIC measured for 24 hrs in presence of 40 uM of FeCl3 by crystal violet staining; format: functional; set-up: scale not given: the % may be the effect or the level left
HEK293 [2] = test: Cytotoxicity against HEK293 cells assessed as reduction in cell viability at 100 uM incubated for 16 hrs by MTT assay relative to control; format: toxicity, cell-based; conditions: human, hek293, 16 h
Pseudomonas aeruginosa [3] = test: Antibiofilm activity against Pseudomonas aeruginosa assessed as biofilm eradication at 4 times MIC measured after 24 hrs by crystal violet staining based analysis; format: functional
Pseudomonas aeruginosa [4] = test: Antibacterial activity against Pseudomonas aeruginosa PAO1 overexpressing fpvA mutant up to 8 times MIC; format: functional, organism-based
Pseudomonas aeruginosa [5] = test: Inhibition of twitching motility in Pseudomonas aeruginosa PAO1 incubated for 16 hrs; format: functional, organism-based; conditions: dose 4.27 µM
[6] = Toxicity in Caenorhabditis elegans infected with Pseudomonas aeruginosa PAO1 assessed as nematode survival at MIC incubated at 48 hrs relative to control
Staphylococcus aureus [7] = test: Antibacterial activity against methicillin-resistant Staphylococcus aureus ATCC 515992 assessed as bacterial growth inhibition by CLSI based broth microdilution method; format: functional
Pseudomonas aeruginosa [8] = test: Antivirulence activity against Pseudomonas aeruginosa PAO1 assessed as reduction in rhamnolipid level at 4.27 uM incubated for 24 hrs by absorbance based assay relative to control; format: functional; set-up: scale not given: the % may be the effect or the level left
Pseudomonas aeruginosa [9] = test: Antibacterial activity against Pseudomonas aeruginosa PAO1 assessed as bacterial growth inhibition by CLSI based broth microdilution method; format: functional
Pseudomonas aeruginosa [10] = test: Antibacterial activity against Pseudomonas aeruginosa 1167 assessed as bacterial growth inhibition by CLSI based broth microdilution method; format: functional
Pseudomonas aeruginosa [11] = test: Antibiofilm activity against Pseudomonas aeruginosa assessed as reduction in biofilm eradication at 1/4 times MIC measured after 24 hrs by crystal violet staining based analysis; format: functional, organism-based
Pseudomonas aeruginosa [12] = test: Antibiofilm activity against Pseudomonas aeruginosa PAO1 assessed as reduction in biofilm formation at 1/2 times MIC measured for 24 hrs in presence of 10 uM of FeCl3 by crystal violet staining; format: functional; set-up: scale not given: the % may be the effect or the level left
Pseudomonas aeruginosa [13] = test: Antibiofilm activity against Pseudomonas aeruginosa PAO1 assessed as […] biofilm biomass at 1/4 times MIC measured for 24 hrs by crystal violet staining; format: functional
Pseudomonas aeruginosa [14] = test: Antibacterial activity against wild type Pseudomonas aeruginosa PAO1 up to 8 times MIC; format: functional, organism-based
HEK293 [15] = test: Cytotoxicity against HEK293 cells assessed as reduction in cell viability at 100 uM incubated for 16 hrs by MTT assay; format: toxicity, cell-based; conditions: human, hek293, 16 h
Pseudomonas aeruginosa [16] = test: Inhibition of twitching motility in Pseudomonas aeruginosa PAO1 at 4.27 uM incubated for 16 hrs relative to control; format: functional
Pseudomonas aeruginosa [17] = test: Antibiofilm activity against Pseudomonas aeruginosa PAO1 assessed as […] biofilm biomass at MIC measured for 24 hrs by crystal violet staining; format: functional
Pseudomonas aeruginosa [18] = test: Potency index, ratio of ciprofloxacin MIC to test compound MIC for antibacterial activity against Pseudomonas aeruginosa PAO1 assessed as bacterial growth inhibition by CLSI based broth microdilution method; format: functional
Staphylococcus aureus [19] = test: Antibacterial activity against Staphylococcus aureus ATCC 25923 assessed as bacterial growth inhibition by CLSI based broth microdilution method; format: functional
Pseudomonas aeruginosa [20] = test: Antivirulence activity against Pseudomonas aeruginosa PAO1 assessed as reduction in pyocyanin level at 4.27 uM incubated for 24 hrs by absorbance based assay relative to control; format: functional; set-up: scale not given: the % may be the effect or the level left
[21] = Toxicity in Caenorhabditis elegans infected with Pseudomonas aeruginosa PAO1 assessed as nematode survival at MIC incubated at 24 hrs relative to control
Pseudomonas aeruginosa [22] = test: Antibacterial activity against Pseudomonas aeruginosa 1121 assessed as bacterial growth inhibition by CLSI based broth microdilution method; format: functional
Staphylococcus aureus [23] = test: Antibacterial activity against methicillin-resistant Staphylococcus aureus ATCC 43300 assessed as bacterial growth inhibition by CLSI based broth microdilution method; format: functional
Pseudomonas aeruginosa [24] = test: Antibiofilm activity against Pseudomonas aeruginosa PAO1 assessed as reduction in biofilm formation at MIC measured for 24 hrs in presence of 40 uM of FeCl3 by crystal violet staining; format: functional; set-up: scale not given: the % may be the effect or the level left
Pseudomonas aeruginosa [25] = test: Antibacterial activity against Pseudomonas aeruginosa 1129 assessed as bacterial growth inhibition by CLSI based broth microdilution method; format: functional
Pseudomonas aeruginosa [26] = test: Potency index, ratio of ciprofloxacin MIC to test compound MIC for antibiofilm activity against Pseudomonas aeruginosa PAO1 assessed as […] biofilm biomass at 1/2 times MIC measured for 24 hrs by crystal violet staining; format: functional
Pseudomonas aeruginosa [27] = test: Selectivity ratio of MIC for antibacterial activity against Pseudomonas aeruginosa PAO1 overexpressing fpvA mutant up to 8 times MIC to MIC for antibacterial activity against Pseudomonas aeruginosa PAO1 up to 8 times MIC; format: functional
Pseudomonas aeruginosa [28] = test: Potency index, ratio of ciprofloxacin MIC to test compound MIC for antibiofilm activity against Pseudomonas aeruginosa PAO1 measured for 24 hrs by crystal violet staining; format: functional
Pseudomonas aeruginosa [29] = test: Inhibition of swimming motility in Pseudomonas aeruginosa PAO1 at 4.27 uM incubated for 16 hrs relative to control; format: functional
[30] = Toxicity in Caenorhabditis elegans infected with Pseudomonas aeruginosa PAO1 assessed as nematode survival at MIC incubated at 12 hrs
A549 = test: Cytotoxicity against human A549 cells assessed as reduction in cell viability up to 100 uM incubated for 16 hrs by MTT assay; format: toxicity, cell-based; conditions: a549, 16 h
Pseudomonas aeruginosa [31] = test: Antivirulence activity against Pseudomonas aeruginosa PAO1 assessed as reduction in pyocyanin level in flask incubated for 24 hrs by absorbance based assay relative to control; format: functional, organism-based
Pseudomonas aeruginosa [32] = test: Antibiofilm activity against Pseudomonas aeruginosa PAO1 assessed as reduction in biofilm formation at 1/2 times MIC measured for 24 hrs in presence of 40 uM of FeCl3 by crystal violet staining; format: functional; set-up: scale not given: the % may be the effect or the level left
Staphylococcus aureus [33] = test: Antibacterial activity against methicillin-resistant Staphylococcus aureus ATCC 513045 assessed as bacterial growth inhibition by CLSI based broth microdilution method; format: functional
Pseudomonas aeruginosa [34] = test: Antibacterial activity against wild type Pseudomonas aeruginosa PAO1 […] delta pvdS up to 8 times MIC; format: functional, organism-based
Pseudomonas aeruginosa [35] = test: Antibiofilm activity against Pseudomonas aeruginosa PAO1 assessed as […] biofilm biomass at 1/2 times MIC measured for 24 hrs by crystal violet staining; format: functional
Pseudomonas aeruginosa [36] = test: Antibiofilm activity against Pseudomonas aeruginosa PAO1 assessed as reduction in biofilm formation at 1/4 times MIC measured for 24 hrs in presence of 10 uM of FeCl3 by crystal violet staining; format: functional; set-up: scale not given: the % may be the effect or the level left
Pseudomonas aeruginosa [37] = test: Antibacterial activity against Pseudomonas aeruginosa FB assessed as bacterial growth inhibition by CLSI based broth microdilution method; format: functional
Pseudomonas aeruginosa [38] = test: Antibiofilm activity against Pseudomonas aeruginosa PAO1 assessed as reduction in biofilm formation at MIC measured for 24 hrs in presence of 10 uM of FeCl3 by crystal violet staining; format: functional; set-up: scale not given: the % may be the effect or the level left
Pseudomonas aeruginosa [39] = test: Inhibition of swarming motility in Pseudomonas aeruginosa PAO1 at 4.27 uM incubated for 16 hrs relative to control; format: functional
Pseudomonas aeruginosa [40] = test: Antivirulence activity against Pseudomonas aeruginosa PAO1 assessed as reduction in rhamnolipid level incubated for 24 hrs by absorbance based assay; format: functional, organism-based
Pseudomonas aeruginosa [41] = test: Antivirulence activity against Pseudomonas aeruginosa PAO1 assessed as reduction in pyocyanin level incubated for 24 hrs by absorbance based assay; format: functional, organism-based
Pseudomonas aeruginosa [42] = test: Antibiofilm activity against Pseudomonas aeruginosa PAO1 measured for 24 hrs by crystal violet staining; format: functional

Compound: O=C(O)c1cn(C2CC2)c2cc(N3CCNCC3)c(F)cc2c1=O [CIPROFLOXACIN]
- Activity (Pseudomonas aeruginosa [1]): 89.5%
- Activity (HEK293 [2]): 40%
- Activity (Pseudomonas aeruginosa [3]): 42.6%
- Activity (Pseudomonas aeruginosa [4]): Active

Compound: Cn1cc(O)c(=O)cc1COC(=O)c1cn(C2CC2)c2cc(N3CCNCC3)c(F)cc2c1=O
- inhibition (Pseudomonas aeruginosa [5]): Dose-dependent-effect
- survival at 48 h [6]: 50%
- MIC (Staphylococcus aureus [7]): > 200 µM
- Activity (Pseudomonas aeruginosa [8]): ~20%
- MIC (Pseudomonas aeruginosa [9]): 1.07 µM (≈ 0.501 µg/mL)
- MIC (Pseudomonas aeruginosa [10]): 2.13 µM (≈ 0.998 µg/mL)
- Activity (Pseudomonas aeruginosa [11]): Active
- Activity (Pseudomonas aeruginosa [12]): 38.3%
- Activity (Pseudomonas aeruginosa [13]): 42.4%
- Activity (Pseudomonas aeruginosa [14]): inactive
- Activity (HEK293 [15]): Non-toxic
- inhibition at 4.27 µM (Pseudomonas aeruginosa [16]): 44.6%
- Activity (Pseudomonas aeruginosa [17]): 52.8%
- Ratio (Pseudomonas aeruginosa [18]): 3
- MIC (Staphylococcus aureus [19]): 4.27 µM (≈ 2 µg/mL)
- Activity (Pseudomonas aeruginosa [20]): ~20%
- Activity [21]: Toxic
- Activity (Pseudomonas aeruginosa [1]): 197.5%
- MIC (Pseudomonas aeruginosa [22]): 2.13 µM (≈ 0.998 µg/mL)
- MIC (Staphylococcus aureus [23]): 2.13 µM (≈ 0.998 µg/mL)
- Activity (Pseudomonas aeruginosa [24]): 179.6%
- MIC (Pseudomonas aeruginosa [25]): 4.27 µM (≈ 2 µg/mL)
- Ratio (Pseudomonas aeruginosa [26]): 3
- Ratio (Pseudomonas aeruginosa [27]): 2
- Ratio (Pseudomonas aeruginosa [28]): 8
- inhibition at 4.27 µM (Pseudomonas aeruginosa [29]): 64.9%
- Activity [30]: Non-toxic
- Activity (A549): Non-toxic
- Activity (Pseudomonas aeruginosa [31]): Active
- Activity (Pseudomonas aeruginosa [32]): 204.8%
- MIC (Staphylococcus aureus [33]): 4.27 µM (≈ 2 µg/mL)
- Activity (Pseudomonas aeruginosa [3]): 75.7%
- Activity (Pseudomonas aeruginosa [34]): inactive
- Activity (Pseudomonas aeruginosa [35]): 38.3%
- Activity (Pseudomonas aeruginosa [36]): 42.4%
- MIC (Pseudomonas aeruginosa [37]): 2.13 µM (≈ 0.998 µg/mL)
- Activity (Pseudomonas aeruginosa [38]): 52.8%
- inhibition at 4.27 µM (Pseudomonas aeruginosa [39]): 53.7%
- Activity (Pseudomonas aeruginosa [40]): Active
- Activity (Pseudomonas aeruginosa [41]): Active
- MIC (Pseudomonas aeruginosa [42]): 8.54 µM (≈ 4 µg/mL)

Compound: Cc1cc(=O)c(O)c(CNC(=O)c2cn(C3CC3)c3cc(N4CCNCC4)c(F)cc3c2=O)n1C
- MIC (Staphylococcus aureus [7]): > 200 µM
- MIC (Pseudomonas aeruginosa [9]): 17.1 µM (≈ 8.24 µg/mL)
- MIC (Pseudomonas aeruginosa [10]): 17.1 µM (≈ 8.24 µg/mL)
- Activity (Pseudomonas aeruginosa [13]): 93.6%
- Activity (Pseudomonas aeruginosa [17]): 75.3%
- MIC (Staphylococcus aureus [19]): 34.2 µM (≈ 16.5 µg/mL)
- MIC (Pseudomonas aeruginosa [22]): 68.5 µM (≈ 33 µg/mL)
- MIC (Staphylococcus aureus [23]): 34.2 µM (≈ 16.5 µg/mL)
- MIC (Pseudomonas aeruginosa [25]): 34.2 µM (≈ 16.5 µg/mL)
- MIC (Staphylococcus aureus [33]): 68.5 µM (≈ 33 µg/mL)
- Activity (Pseudomonas aeruginosa [35]): 78.1%
- MIC (Pseudomonas aeruginosa [37]): 68.5 µM (≈ 33 µg/mL)
- MIC (Pseudomonas aeruginosa [42]): 66.5 µM (≈ 32 µg/mL)

Compound: COC(=O)c1cn(C2CC2)c2cc(N3CCNCC3)c(F)cc2c1=O
- MIC (Staphylococcus aureus [7]): > 200 µM
- MIC (Pseudomonas aeruginosa [9]): 185 µM (≈ 64 µg/mL)
- MIC (Pseudomonas aeruginosa [10]): 185 µM (≈ 64 µg/mL)
- Activity (Pseudomonas aeruginosa [13]): 122.4%
- inhibition (Pseudomonas aeruginosa [16]): inactive
- Activity (Pseudomonas aeruginosa [17]): 109.7%
- MIC (Staphylococcus aureus [19]): > 200 µM
- MIC (Pseudomonas aeruginosa [22]): > 200 µM
- MIC (Staphylococcus aureus [23]): > 200 µM
- MIC (Pseudomonas aeruginosa [25]): > 200 µM
- inhibition (Pseudomonas aeruginosa [29]): inactive
- MIC (Staphylococcus aureus [33]): > 200 µM
- Activity (Pseudomonas aeruginosa [35]): 145.2%
- MIC (Pseudomonas aeruginosa [37]): > 200 µM
- inhibition (Pseudomonas aeruginosa [39]): inactive
- MIC (Pseudomonas aeruginosa [42]): 185 µM (≈ 64 µg/mL)

Compound: Cn1cc(O)c(=O)cc1CNC(=O)c1cn(C2CC2)c2cc(N3CCNCC3)c(F)cc2c1=O
- MIC (Staphylococcus aureus [7]): > 200 µM
- MIC (Pseudomonas aeruginosa [9]): 8.31 µM (≈ 3.88 µg/mL)
- MIC (Pseudomonas aeruginosa [10]): 8.31 µM (≈ 3.88 µg/mL)
- Activity (Pseudomonas aeruginosa [13]): 88.5%
- Activity (Pseudomonas aeruginosa [17]): 71.6%
- Ratio (Pseudomonas aeruginosa [18]): 3
- MIC (Staphylococcus aureus [19]): 16.6 µM (≈ 7.77 µg/mL)
- MIC (Pseudomonas aeruginosa [22]): 16.6 µM (≈ 7.77 µg/mL)
- MIC (Staphylococcus aureus [23]): 16.6 µM (≈ 7.77 µg/mL)
- MIC (Pseudomonas aeruginosa [25]): 16.6 µM (≈ 7.77 µg/mL)
- MIC (Staphylococcus aureus [33]): 33.2 µM (≈ 15.5 µg/mL)
- Activity (Pseudomonas aeruginosa [35]): 82.4%
- MIC (Pseudomonas aeruginosa [37]): 8.31 µM (≈ 3.88 µg/mL)
- MIC (Pseudomonas aeruginosa [42]): 68.5 µM (≈ 32 µg/mL)
